Results on six compounds are retold here after patent publication US6593342B1, “Pharmaceutical compositions comprising 2-quinolones” (Laboratoire L. Lafon, priority 1998, dated 2003).

What all share (assay type): cell-based
What all share (conditions): Homo sapiens, 10^−5 M, 72 hours, control = 100%, mean ± SEM, read-out: average optical density (MTT), percentage relative to control

The test system of one test is A-427. As to the kind of experiment: MTT test, A-427. The method in brief: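 Cells seeded at 20 000–50 000/ml and allowed 24 h before exposure to compound (10^−5 to 10^−10 M) or solvent for 72 h at 37° C, 5% CO2. Viability measured by MTT reduction (1 mg/ml, 3 h), formazan dissolved in DMSO, read at 570/630 nm. Values are optical density as % of solvent control.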
On the technique in general: Tetrazolium assays rely on reduction of a dye to a coloured formazan, in cell work by metabolically active cells.

In another test the test system is PC-3. As to the kind of experiment: MTT test, PC-3. The method in brief: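 Cells seeded 24 h, then exposed to compounds at 10^−5 to 10^−10 M for 72 h at 37 °C in MEM with 5% FCS. MTT (1 mg/ml) added 3 h; formazan dissolved in DMSO, absorbance 570 nm with 630 nm background; optical density expressed as percent of solvent control.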
A further test concerns U-87MG. In words: MTT test, U-87MG. The method in brief:
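Human glioblastoma lines in MEM/25 mM HEPES with 5% FCS, seeded 24 h, then exposed 72 h at 37 °C to compounds at 10^−5 to 10^−10 M or solvent. MTT (1 mg/ml) 3 h, formazan dissolved in DMSO, absorbance 570/630 nm; optical density expressed as % of solvent control.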

Another test relates to SW1088. In words: MTT test, SW1088. The gist of the method:
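SW1088 astrocytoma cells, seeded 24 h, then exposed to compound (10^−5 to 10^−10 M) for 72 h at 37 °C in MEM with 5% FCS. Viability by MTT reduction (1 mg/ml, 3 h), formazan dissolved in DMSO, absorbance at 570/630 nm. Expressed as % of solvent-control optical density.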

Another test concerns LoVo. In words: MTT test, LoVo. The method in brief: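 Human colorectal LoVo and HCT-15 cells in MEM/25 mM HEPES with 5% FCS were seeded, grown 24 h, then exposed 72 h at 37 °C to compounds at 10^−5 to 10^−10 M. Viability was read by MTT reduction (3 h), formazan dissolved in DMSO and read at 570/630 nm, expressed as % of solvent control.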

For the compound `COc1ccc(-c2cc3c(OC)cc(OC)cc3[nH]c2=O)cc1` [CRL8246, 5,7-Dimethoxy-3-(4-methoxyphenyl)-1,2-dihydro-2-quinolinone], the viability at 10 µM with A-427 worked out at 101 ± 0.9%; with PC-3, 122 ± 1.7%; in the test with U-87MG it was 92.1 ± 1.5%; in the test on SW1088, 108 ± 1.1%; in the test on LoVo it was 109 ± 7%.
Take `COc1ccc(-c2cc3c(OC)cc(OC)cc3n(CCC#N)c2=O)cc1` [CRL8247, 3-[5,7-Dimethoxy-3-(4-methoxyphenyl)-2-oxo-1,2-dihydro-1-quinolinyl]propanenitrile]: the viability at 10 µM in the test on A-427 came out at 57 ± 1.5%; with PC-3, 70.5 ± 4.6%; in the test on U-87MG, 59 ± 2.3%; in the test with SW1088 it was 85.8 ± 3.6%; with LoVo, 66.4 ± 2.5%.
Taken in the same sequence, the figures for `COc1ccc(-c2cc3c(OC)cc(OC)cc3n(CCc3nnn[nH]3)c2=O)cc1` [CRL8256, 1-[2-(1H-1,2,3,4-Tetrazol-5-yl)ethyl]-5,7-dimethoxy-3-(4-methoxyphenyl)-1,2-dihydro-2-quinolinone] were 81.1 ± 2.9%, 86 ± 2.3%, 84.7 ± 1.7%, 72.1 ± 3.3% and 93 ± 2.3%.
As to `CCN(CC)C(=O)CCn1c(=O)c(-c2ccc(OC)cc2)cc2c(OC)cc(OC)cc21` [CRL8283, N,N-Diethyl-3-[5,7-dimethoxy-3-(4-methoxy-phenyl)-2-oxo-1,2-dihydro-1-quinolinyl]propanamide], the viability at 10 µM with A-427 is 73.1 ± 1.7%; with PC-3, 92.4 ± 1.7%; with U-87MG it was 69.9 ± 3.4%; in the test on SW1088, 84.7 ± 3.1%; in the test on LoVo, 97.3 ± 3.6%.
Taken in the same sequence, the figures for `CCN(CC)C(=O)Cn1c(=O)c(-c2ccc(OC)cc2)cc2c(OC)cc(OC)cc21` [CRL8315, N,N-Diethyl-2-[5,7-dimethoxy-3-(4-methoxy-phenyl)-2-oxo-1,2-dihydro-1-quinolinyl]acetamide] were 92.6 ± 2.1%, 93.6 ± 3%, 87.6 ± 4.5%, 89.1 ± 0.6% and 78.9 ± 2.1%.
For `COc1ccc(-c2cc3c(OC)cc(OC)cc3n(CCN(C)C)c2=O)cc1` [CRL8316, 1-[2-(Dimethylamino)ethyl]-5,7-dimethoxy-3-(4-methoxyphenyl)-1,2-dihydro-2-quinolinone] the same measures were 79.1 ± 4.8%, 84.8 ± 2.3%, 74.3 ± 1.4%, 107 ± 2% and 73.9 ± 2.1%.
